# Data taken from patent US12263139B2, “Use of cannabidiol in the treatment of tuberous sclerosis complex” (Jazz Pharmaceuticals Research UK Limited, priority 2017, dated 2025).
# Legend:
# pS6 positive cells = assay: Size of pS6 positive cells in zebrafish model of TSC; assay type: in vivo
# Text: A zebrafish model of TSC with a tsc2 gene deletion was used. This model has been previously published and validated (Kim et al. 2011). By mating the gene deletion animals with wild-type tsc2+/+ animals, heterozygote (tsc2+/−) zebrafish were also obtained and tested in this example.
# For both pS6 and TUNEL staining, non-consecutive sections were imaged using a Zeiss AxioImager microscope. Exposure time was kept constant during image acquisition and determined by the observation of a slide where primary antibody or enzyme solution was omitted. Pictures were taken with a 20× objective, using the AxioVision software, and coloured using Fiji ImageJ. All counting and measuring of cells was done in the original black and white pictures.
# Statistical analysis was performed in SPSS (IBM SPSS Statistics 22), except for the chi-square test, which was done using GraphPad Prism 5. Normality and sphericity were tested using the Kolmogorov-Smirnov and Mauchly's tests, respectively. Repeated measures two-way ANOVA tests were used to analyse the locomotor assay data and cell number, while a three-way ANOVA test was used to analyse cell size. Touch response (TR) between genotypes and treatments was analysed by chi-square test. Tests were followed by Tukey or Bonferroni post-hoc tests.
# [1] = test system: mTORC1 signalling (rpS6 phosphorylation); assay: Western blot of rpS6 phosphorylation (mTORC1 signalling) in Tsc2−/− MEFs; assay type: cell-based, mouse; settings: CBD at 5 μM, 6 h of treatment
# Description: Cells were washed in Phosphate Buffered Saline (PBS) and then lysed directly in sample buffer (62.5 mM Tris HCL, 50 mM DTT, 2% SDS (w/v), 10% Glycerol (w/v), 0.1% Bromophenol blue (w/v) pH 7.6) and sonicated for 5×20 s cycles on full power (30 amplitude microns). Samples were boiled at 95° C. for 10 min. Lysates were resolved by SDS-PAGE and proteins were transferred to polyvinylidene difluoride membranes.
# Membranes were blocked in 5% (w/v) dry milk powder dissolved in Tris-buffered saline containing 0.1% (v/v) Tween, then probed with primary antibody and horse radish peroxidase-conjugated secondary antibody. Proteins were visualized using Enhanced Chemiluminescent solution and Hyperfilm. Antibodies towards ribosomal protein S6 (rpS6), phospho-rpS6 (Ser235/236) were purchased from Cell Signaling Technology. Anti-HIF-1α was obtained from BD transduction laboratories. Statistical Analysis
# Western blotting was carried out to determine whether CBD could impair mTORC1 signalling (using rpS6 phosphorylation as a readout of mTORC1 signalling).
smiles,measurement,setting,value
"C=C(C)[C@@H]1CCC(C)=C[C@H]1c1c(O)cc(CCCCC)cc1O [CBD, Cannabidiol]",change in size of pS6 positive cells,"pS6 positive cells; main effect of treatment, compared to Danieau's or DMSO groups, FIG. 5B",−20.1%
same,effect on size of pS6 positive cells,pS6 positive cells; tsc2+/+ zebrafish,did not affect cell size
same,change in size of pS6 positive cells,"pS6 positive cells; tsc2+/− zebrafish, compared to Danieau's, FIG. 5C",−27.6%
same,change in size of pS6 positive cells,"pS6 positive cells; tsc2+/− zebrafish, compared to the DMSO group, FIG. 5C",−18.1%
same,change in size of pS6 positive cells,"pS6 positive cells; tsc2−/− zebrafish, compared to Danieau's, FIG. 5C",−23%
same,change in size of pS6 positive cells,"pS6 positive cells; tsc2−/− zebrafish, compared to the DMSO group, FIG. 5C",−20.8%
same,rpS6 phosphorylation,[1],inhibited rpS6 phosphorylation
